Data from US20250277066A1, “Substituted Pyridine-2,6-Bis(Phenylenephenolate) Complexes with Enhanced Solubility that are Useful as Catalyst Components for Olefin Polymerization” (ExxonMobil Chemical Patents Inc., priority 2022, published 2025).
Where “and” joins values, the source holds several entries; their conditions need not be identical. Equal values may be shown once.

Experiment: Propylene polymerization (PP) in small-scale autoclave reactors: yield, quench time, catalyst activity
From the text: Solutions of the pre-catalysts were made using toluene (ExxonMobil Chemical—anhydrous, stored under N2) (98%) or isohexane (ExxonMobil Chemical—polymerization grade, and purified as described below). Pre-catalyst solutions were typically 0.25 mmol/L.
Solvents, polymerization grade toluene and/or isohexanes were supplied by ExxonMobil Chemical Co. and are purified by passing through a series of columns: two 500 cc Oxyclear cylinders in series from Labclear (Oakland, Calif), followed by two 500 cc columns in series packed with dried […] (8-12 mesh; Aldrich Chemical Company), and two 500 cc columns in series packed with dried 5 Å mole sieves (8-12 mesh; Aldrich Chemical Company).
Polymerization grade propylene (C3) was used and further purified by passing it through a series of columns: 2250 cc Oxiclear cylinder from Labclear followed by a 2250 cc column packed with 3 Å mole sieves (8-12 mesh; Aldrich Chemical Company), then two 500 cc columns in series packed with 5 Å mole sieves (8-12 mesh; Aldrich Chemical Company), then a 500 cc column packed with Selexsorb CD (BASF), and finally a 500 cc column packed with Selexsorb COS (BASF).
Activation of the pre-catalysts was either by dimethylanilinium tetrakisperfluorophenylborate (Boulder Scientific or Albemarle Corp; Act ID=A) or is (hydrogenated tallow alkyl)methylammonium tetrakis(pentafluorophenyl)borate supplied as a 10 wt % solution in methylcyclohexane (Boulder Scientific; Act ID=B). Activators were typically used as a 0.25 mmol/L solution in toluene or isohexane.
Tri-n-octylaluminum (TnOAl or TNOA, Neat, AkzoNobel) was also used as a scavenger prior to introduction of the activator and pre-catalyst into the reactor. TNOA was typically used as a 5 mmol/L solution in toluene or isohexane.
Polymerizations were conducted in an inert atmosphere (N2) drybox using autoclaves equipped with an external heater for temperature control, glass inserts (internal volume of reactor=23.5 mL for C2 and C2/C8; 22.5 mL for C3 runs), septum inlets, regulated supply of nitrogen, ethylene and propylene, and equipped with disposable PEEK mechanical stirrers (800 RPM). The autoclaves were prepared by purging with dry nitrogen at 110° C. or 115° C. for 5 hours and then at 25° C. for 5 hours.
The reactor was prepared as described above, then heated to 40° C., and then purged with propylene gas at atmospheric pressure. Toluene or isohexanes, liquid propylene (1.0 mL) and scavenger (TNOA, 0.5 μmol) were added via syringe. The reactor was then brought to process temperature (70° C. or 100° C.) while stirring at 800 RPM. The activator solution, followed by the pre-catalyst solution, were injected via syringe to the reactor at process conditions. Reactor temperature was monitored and typically maintained within +/−1° C. Polymerizations were halted by addition of approximately 50 psi compressed dry air gas mixture to the autoclaves for approximately 30 seconds. The polymerizations were quenched based on a predetermined pressure loss (maximum quench value) or for a maximum of 30 minutes. The reactors were cooled and vented. The polymers were isolated after the solvent was removed in-vacuo. The actual quench time (s) is reported as quench time (s). Yields reported include total weight of polymer and residual catalyst. Catalyst activity is reported as grams of polymer per mmol transition metal compound per hour of reaction time (g/mmol·hr).
Polymerization results are collected in Tables 2 below. “Ex #” stands for example number. Example numbers starting with a “C” are comparative examples. “Cat ID” identifies the pre-catalyst used in the experiment. Corresponding numbers identifying the pre-catalyst (also referred to as pre-catalyst, catalyst, complex or compound) are located in the synthetic experimental section. T(° C.) is the polymerization temperature which was typically maintained within +/−1° C. “Yield” is polymer yield, and is not corrected for catalyst residue. […]

SMILES | Activity (activator B, T 70° C.) | Activity (activator B, T 100° C.) | Activity (activator A, T 70° C.)
CC(C)(C)c1cc2c(c(C34CC5CC(CC(C5)C3)C4)c1)[O][Zr-]1([CH3])([CH3])[O]c3c(cc(C(C)(C)C)cc3C34CC5CC(CC(C5)C3)C4)-c3ccccc3-c3cccc([n+]31)-c1ccccc1-2 [Complex 2] | 2,069,268 g P/mmol cat • hr and 4,201,200 g P/mmol cat • hr and 3,074,182 g P/mmol cat • hr | 2,345,000 g P/mmol cat • hr and 2,682,545 g P/mmol cat • hr and 2,225,032 g P/mmol cat • hr | –
Cc1cc2[n+]3c(c1)-c1ccccc1-c1cc(C(C)(C)C)cc(C45CC6CC(CC(C6)C4)C5)c1[O][Zr-]3([CH3])([CH3])[O]c1c(cc(C(C)(C)C)cc1C13CC4CC(CC(C4)C1)C3)-c1ccccc1-2 [Complex 3] | 1,030,400 g P/mmol cat • hr and 1,074,880 g P/mmol cat • hr and 1,034,182 g P/mmol cat • hr | 844,235 g P/mmol cat • hr and 476,276 g P/mmol cat • hr and 766,154 g P/mmol cat • hr | 1,623,360 g P/mmol cat • hr and 2,345,333 g P/mmol cat • hr
